Several values for one entry are separate records, joined by “and”; a condition that tells them apart may be missing. Identical values can stand only once.
Tested on: SK-MEL-2 multi-cell spheroids, viability
Assay: Anticancer human tumor SK-MEL-2 cell line growth inhibition [TAK];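 further: spheroids exposed to drugs for seven days before readout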;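 on viability, T/C: percent of DMSO vehicle control luminescence so 100% = untreated viability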
Conditions: for viability, T/C: stronger effect = lower value
Excerpt: Combinatorial screen of targeted agents with TAK-243 and ipatasertib in multi-cell type tumor spheroids
A high-throughput screen of multi-cell type tumor spheroids was designed to identify active combinations of targeted small molecules and TAK-243 or ipatasertib. Complex spheroids include a stromal component modeled by human endothelial cells (HUVEC) and fibroblasts modeled by human mesenchymal stem cells (MSCs). The concentration ranges selected for each drug and investigational agent were based upon clinically achievable concentrations if the clinical Cmax of the agent was known.
Compounds. The drugs and investigational agents: TAK-243 (785004), ipatasertib (767898), everolimus (733504), selumetinib (741078), bortezomib (756655), trametinib (758246), ixazomib (758254), vemurafenib (761431), dabrafenib (764134), sapanisertib (764658), alpelisib (765974), and copanlisib (816437), were obtained from the National Cancer Institute (NCI) Developmental Therapeutics Program Chemical Repository. The FDA-approved anticancer drug set is available from the NCI Developmental Therapeutics Program. […] The stock solutions were prepared in dimethyl sulfoxide (DMSO, Sigma-Aldrich, St. Louis, MO, cat. D2650) at 800-fold the tested concentration and stored at -70 degrees C prior to their use. All drugs and investigational agents were tested over a range starting from a high concentration at or near the clinical Cmax and decreasing in half-log increments. If the clinical Cmax for an agent had not been determined, the highest concentration tested was 10 microM.
NCI60 Cell Culture. NCI60 cell lines were obtained from the NCI Developmental Therapeutics Program Tumor Repository. For each lot of cells, the Repository performed Applied Biosystems AmpFLSTR Identifiler testing with PCR amplification to confirm consistency with the published Identifier STR profile for each cell line. Cells were kept in continuous culture for no more than 20 passages. The optimal seeding densities for each of the cell lines at each time point assessed were determined prior to performing the concentration response studies. Briefly, the NCI60 human tumor lines were grown as monolayers in RPMI 1640 medium supplemented with 10% FBS and 2 mmol/L L-glutamine.
An additional 2 lines were from the NCI60 cell line panel including melanomas, MALME-3M and SK-MEL-2. Pooled donor human umbilical vein endothelial cells (HUVEC, Lonza, cat. CC-2519) and human mesenchymal stem cells (hMSC, Lonza, cat. PT-2501) were purchased from Lonza (Walkersville, MD).
PDMR cell lines were grown in complete medium (DC medium): Dulbecco's modified Eagle's medium (DMEM)/F12 supplemented with 5% fetal bovine serum (FBS), 2 mM L-glutamine, 100 U/mL penicillin and 100 µg/ml streptomycin, 0.4 µg/ml hydrocortisone, 10 ng/ml epidermal growth factor (EGF) recombinant human protein, 24 µg/mL adenine, and 0.1 mg/mL primocin. During culture from frozen stock vials, PDMR cells were cultured in the same medium containing 10 µM Y-27632 (see Table 3). The PDCs were cultured in complete DMEM/F12 media without 10 microM Y-27632 dihydrochloride for at least two passages prior to the screen. The pooled donor HUVEC and hMSC were cultured in endothelial cell growth medium 2 (PromoCell, Heidelberg, Germany, cat. C-22011) and mesenchymal stem cell growth medium 2 (PromoCell, cat. C-28009), respectively. For all experiments, HUVEC and hMSC were used at passages </=5.
For the pre-screen, cell seeding densities were determined from a titration spanning the range from 5,000 to 313 cells per well. The mct-spheroids including 60% malignant cells, 25% HUVEC and 15% MSC dispensed as a mixture into U-bottom Ultra-Low Attachment 384-well plates (Corning, NY)
High-throughput Drug Combination Screening.
Prior to their inoculation into 384-well plates, malignant cells, HUVEC, and hMSC were removed from T flasks using TrypLE express (Thermo Fisher Scientific, cat. 12605036) and harvested by centrifugation for 5 min at 233 x g. […]

## CC(C)NCC(C(=O)N1CCN(c2ncnc3c2C(C)CC3O)CC1)c1ccc(Cl)cc1 (stereo not given)
Compound alone, run of 02/20/2020
  IC50: > 30000 nM

## CC(C)n1nc(-c2ccc3oc(N)nc3c2)c2c(N)ncnc21
Compound 0.000316 µM
  viability, T/C: 109% and 105%
Compound 0.001 µM
  viability, T/C: 99.8% and 100%
Compound 0.00316 µM
  viability, T/C: 88.6% and 89.8%
Compound 0.01 µM
  viability, T/C: 86.9% and 76%
Compound 0.0316 µM
  viability, T/C: 52.2% and 55.5%
Compound 0.1 µM
  viability, T/C: 29.2% and 31.2%
Curve of compound
  IC50: 41 nM and 41.1 nM

## CC(C)CC(NC(=O)CNC(=O)c1cc(Cl)ccc1Cl)B1OC(=O)CC(CC(=O)O)(C(=O)O)O1 (stereo not given) + CC(C)NCC(C(=O)N1CCN(c2ncnc3c2C(C)CC3O)CC1)c1ccc(Cl)cc1
Curve of first compound, second compound 0.3 µM
  IC50: 17.1 nM
Curve of first compound, second compound 0.949 µM
  IC50: 12.8 nM
Curve of first compound, second compound 3 µM
  IC50: 5.07 nM
Curve of first compound, second compound 9.49 µM
  IC50: 2.04 nM
Curve of first compound, second compound 30 µM
  IC50: < 0.316 nM
Second compound 0.3 µM, first compound 0.000316 µM
  viability, T/C: 94.8%
Second compound 0.3 µM, first compound 0.001 µM
  viability, T/C: 94.7%
Second compound 0.3 µM, first compound 0.00316 µM
  viability, T/C: 85%
Second compound 0.3 µM, first compound 0.01 µM
  viability, T/C: 64.9%
Second compound 0.3 µM, first compound 0.0316 µM
  viability, T/C: 32.8%
Second compound 0.3 µM, first compound 0.1 µM
  viability, T/C: 5.51%
Second compound 0.949 µM, first compound 0.000316 µM
  viability, T/C: 81.3%
Second compound 0.949 µM, first compound 0.001 µM
  viability, T/C: 76.5%
Second compound 0.949 µM, first compound 0.00316 µM
  viability, T/C: 70.3%
Second compound 0.949 µM, first compound 0.01 µM
  viability, T/C: 59.5%
Second compound 0.949 µM, first compound 0.0316 µM
  viability, T/C: 20.2%
Second compound 0.949 µM, first compound 0.1 µM
  viability, T/C: 6.05%
Second compound 3 µM, first compound 0.000316 µM
  viability, T/C: 70%
Second compound 3 µM, first compound 0.001 µM
  viability, T/C: 67%
Second compound 3 µM, first compound 0.00316 µM
  viability, T/C: 53.8%
Second compound 3 µM, first compound 0.01 µM
  viability, T/C: 43.3%
Second compound 3 µM, first compound 0.0316 µM
  viability, T/C: 20.2%
Second compound 3 µM, first compound 0.1 µM
  viability, T/C: 5.6%
Second compound 9.49 µM, first compound 0.000316 µM
  viability, T/C: 52.6%
Second compound 9.49 µM, first compound 0.001 µM
  viability, T/C: 55.7%
Second compound 9.49 µM, first compound 0.00316 µM
  viability, T/C: 44.2%
Second compound 9.49 µM, first compound 0.01 µM
  viability, T/C: 40.3%
Second compound 9.49 µM, first compound 0.0316 µM
  viability, T/C: 17.9%
Second compound 9.49 µM, first compound 0.1 µM
  viability, T/C: 5.27%
Second compound 30 µM, first compound 0.000316 µM
  viability, T/C: 47.8%
Second compound 30 µM, first compound 0.001 µM
  viability, T/C: 47.5%
Second compound 30 µM, first compound 0.00316 µM
  viability, T/C: 41.7%
Second compound 30 µM, first compound 0.01 µM
  viability, T/C: 33.5%
Second compound 30 µM, first compound 0.0316 µM
  viability, T/C: 14.4%
Second compound 30 µM, first compound 0.1 µM
  viability, T/C: 4.44%

## COc1c(OCCCN2CCOCC2)ccc2c3n(c(=NC(=O)c4cnc(N)nc4)nc12)CCN3
Compound 0.00316 µM
  viability, T/C: 93.1% and 92.3%
Compound 0.01 µM
  viability, T/C: 71.8% and 74%
Compound 0.0316 µM
  viability, T/C: 60.8% and 56.7%
Compound 0.1 µM
  viability, T/C: 44.8% and 46.6%
Compound 0.316 µM
  viability, T/C: 31.1% and 30.9%
Compound 1 µM
  viability, T/C: 20.5% and 23.6%
Curve of compound
  IC50: 63.9 nM and 61.4 nM
